Results published in paper PMC8961538, “N-Acylated and N-Alkylated 2-Aminobenzothiazoles Are Novel Agents That Suppress the Generation of Prostaglandin E2” (Biomolecules, 2022).

Tests used:
[1] = test system: PGE2 generation in rat mesangial cells; experiment: Suppression of IL-1β/forskolin-stimulated PGE2 generation in rat renal mesangial cells; format: cell-based; conditions: for inhibition at 3 µM / IC50: Rattus norvegicus, Mesangial cell; for IC50: IL-1β plus forskolin, read-out: EC50 (μM), inhibition of PGE2 generation
Protocol: Rat renal mesangial cells (clone MZ B1), isolated and characterized as previously described, were cultivated in RPMI 1640 medium supplemented with 10% fetal bovine serum; 10 mM 4-(2-hydroxyethyl)-1-piperazineethanesulfonic acid (HEPES), pH 7.4; 6 µg/mL of bovine insulin; 5 µg/mL of transferrin; 5 nM sodium selenite; 100 units/mL of penicillin; and 100 µg/mL of streptomycin. The cells were incubated for 4 h in Dulbecco’s modified Eagle’s medium (DMEM) containing 10 mM HEPES, pH 7.4, and 0.1 mg/mL of fatty acid-free bovine serum albumin (BSA), prior to stimulation.
Confluent mesangial cells in 24-well plates were pretreated for 20 min with varying concentrations of inhibitors and then stimulated for 24 h in a total volume of 400 µL of DMEM containing 0.1 mg/mL of BSA, in the absence or presence of 1 nM interleukin 1β (IL-1) plus 5 μM forskolin (Fk). Thereafter, the supernatants were collected and centrifuged for 5 min at 1000× g. The PGE2 in the supernatant was quantified using an enzyme-linked immunoassay (Enzo Life Sciences, Lörrach, Germany) following the manufacturer’s recommendations.
Statistical analysis of the data was performed using one-way analysis of variance (ANOVA) followed by a Bonferroni’s post hoc test for multiple comparisons (GraphPad Prism 8.4.3., San Diego, CA, USA). The half maximal effective concentrations (EC50) of the inhibitors were calculated using the same software.

[2] = test system: rat-paw carrageenan-induced edema; experiment: Rat-paw carrageenan-induced-edema assay; format: in vivo; conditions: for In vivo anti-inflammatory activity compared with indomethacin: 0.01 mmol/kg, same dose as indomethacin
Protocol: The anti-inflammatory activities of selected aminobenzothiazole derivatives were determined by employing the rat-paw carrageenan-induced-edema assay, as previously described. Only male animals (180–220 g body weight) were used. Each group was composed of five animals. The animals were divided into three five-membered groups, and all the tested compounds were suspended in water (0.01 mmol/mL/kg body weight), with a few drops of Tween 80, and ground in a mortar before being administered intraperitoneally simultaneously. After treatment with the tested compounds in group 1, a 2nd group was used as a positive control (indomethacin at 0.01 mmol/mL/kg body weight, i.p.), and another group (3rd) served as the control in which water was administered (negative control). The compounds were injected intraperitoneally at the same time as carrageenan was given by intradermal injection. The rats were euthanized 3.5 h post-injection. The weight of the uninjected with carrageenan paw was subtracted from the weight of the injected paw for each animal. The change in paw weight for the treated animals was compared to that for the control animals and expressed as the percent inhibition of edema. The values of CPE % are the means from three different experiments with standard errors of the mean less than 10%. The statistical significance of the results was established with Student’s t-test, for * p < 0.01 and ** p < 0.05. All the animal experiments performed in the manuscript were conducted in compliance with institutional guidelines. Our studies were in accordance with recognized guidelines on animal experimentation (guidelines for the care and use of laboratory animals published by the Greek Government 160/1991, based on EU regulations 86/609). The rats were kept in the Centre of the School of Veterinary Medicine (EL54 BIO42), Aristotle University of Thessaloniki, which is registered by the official state veterinary authorities (presidential degree 56/2013, in harmonization with the European Directive 2010/63/EEC). The experimental protocols were approved by the Animal Ethics Committee of the Prefecture of Central Macedonia (no. 270079/2500).

[3] = 24 h, 3 μM, 1 nM IL-1β plus 5 μM forskolin

melting point [°C]	SMILES	inhibition at 3 µM [1, 3] [%]	also measured
170 to 173	c1ccc2c(OCCNc3nc4ccccc4s3)cccc2c1 [Compound 25b, N-(2-(Naphthalen-1-yloxy)Ethyl)Benzo[d]Thiazol-2-Amine]	57	
56 to 58	O=C(CCCc1ccc2ccccc2c1)Nc1nc2ccccc2[nH]1 [Compound 5f, N-(1H-Benzo[d]Imidazol-2-yl)-4-(Naphthalen-2-yl)Butanamide]	66	
	COc1ccc2c(c1)c(CC(=O)O)c(C)n2C(=O)c1ccc(Cl)cc1 [Indomethacin, reference compound]		% Reduction of Rat-Paw Edema ([2]; 0.01 mmol/kg i.p., given with carrageenan, 3.5 h post-injection): 37.3%
228 to 230	O=C(/C=C/c1ccc2ccccc2c1)Nc1nc2ccccc2s1 [Compound 9a, (E)-N-(Benzo[d]Thiazol-2-yl)-3-(Naphthalen-2-yl)Acrylamide]	28	
99 to 102	c1ccc(CCCNc2nc3ccccc3s2)cc1 [Compound 19b, N-(3-Phenylpropyl)Benzo[d]Thiazol-2-Amine]	> 80	IC50 ([1]; 0.1 to 3 µM, 24 h): 0.177 µM
46 to 48	O=C(CCc1ccc2ccccc2c1)Nc1nc2ccccc2s1 [Compound 5b, N-(Benzo[d]Thiazol-2-yl)-3-(Naphthalen-2-yl)Propanamide]	> 80	IC50 ([1]; 0.1 to 3 µM, 24 h): 0.173 µM; In vivo anti-inflammatory activity compared with indomethacin [2]: higher than that of indomethacin; In vivo anti-inflammatory activity compared with indomethacin ([2]; listed as GK510): greater than that of indomethacin
	COC(CCc1ccccc1)Nc1nc2ccccc2s1 (centres unmarked) [Compound 18b, N-(1-Methoxy-3-Phenylpropyl)Benzo[d]Thiazol-2-Amine]	0	
47 to 49	O=C(CCc1ccc2ccccc2c1)Nc1nc2ccccc2[nH]1 [Compound 5e, N-(1H-Benzo[d]Imidazol-2-yl)-3-(Naphthalen-2-yl)Propanamide]	29	
134 to 137	c1ccc2c(CCCNc3nc4ccccc4s3)cccc2c1 [Compound 19d, N-(3-(Naphthalen-1-yl)Propyl)Benzo[d]Thiazol-2-Amine]	> 80	IC50 ([1]; 0.1 to 3 µM, 24 h): 0.399 µM
83 to 84	c1ccc(CCCNc2nccs2)cc1 [Compound 19f, N-(3-Phenylpropyl)Thiazol-2-Amine]	20	
100 to 102	COC(CCc1cccc2ccccc12)Nc1nc2ccc(OC(F)(F)F)cc2s1 (centres unmarked) [Compound 18h, N-(1-Methoxy-3-(Naphthalen-1-yl)Propyl)-6-(Trifluoromethoxy)Benzo[d]Thiazol-2-Amine]		
150 to 152	FC(F)(F)Oc1ccc2nc(NCCCc3ccc4ccccc4c3)sc2c1 [Compound 19g, N-(3-(Naphthalen-2-yl)Propyl)-6-(Trifluoromethoxy)Benzo[d]Thiazol-2-Amine]	0	% Inhibition (at 3 μM) of PGE2 generation ([1]; 3 μM, 1 nM IL-1β plus 5 μM forskolin, 24 h, listed as 19): inactive
141 to 143	COc1ccc(COC(=O)Nc2nc3ccccc3s2)cc1 [Compound 16a, 4-Methoxybenzyl Benzo[d]Thiazol-2-ylcarbamate]	15	
153 to 155	O=C(COc1ccc2ccccc2c1)Nc1nc2ccccc2s1 [Compound 7, N-(Benzo[d]Thiazol-2-yl)-2-(Naphthalen-2-yloxy)Acetamide]	41	
164 to 166	c1ccc2c(OCCNc3nc4ccccc4o3)cccc2c1 [Compound 23d, N-(2-(Naphthalen-1-yloxy)Ethyl)Benzo[d]Oxazol-2-Amine]	45	
94 to 97	c1ccc2c(CCCNc3nccs3)cccc2c1 [Compound 19e, N-(3-(Naphthalen-1-yl)Propyl)Thiazol-2-Amine]	> 80	Concentration dependence of effect on PGE2 generation ([1]; 0.1 to 3 µM, low concentrations enhanced PGE2, 1 µM and 3 µM reduced it): biphasic effect

melting point [°C]	SMILES	inhibition at 3 µM [1, 3] [%]	also measured
	COC(CCc1ccc2ccccc2c1)Nc1nc2ccccc2s1 (centres unmarked) [Compound 18a, N-(1-Methoxy-3-(Naphthalen-2-yl)Propyl)Benzo[d]Thiazol-2-Amine]	46	
53 to 55	O=C(CCCc1ccc2ccccc2c1)Nc1nc2ccccc2s1 [Compound 5a, N-(Benzo[d]Thiazol-2-yl)-4-(Naphthalen-2-yl)Butanamide]	50	
	COc1ccc(CCC(Nc2nc3ccccc3s2)OC)cc1 (centres unmarked) [Compound 18c, N-(1-Methoxy-3-(4-Methoxyphenyl)Propyl)Benzo[d]Thiazol-2-Amine]	0	
172 to 174	COc1ccc(CCC(=O)Nc2nc3ccccc3s2)cc1 [Compound 11, N-(Benzo[d]Thiazol-2-yl)-3-(4-Methoxyphenyl)Propanamide]	> 80	IC50 ([1]; 0.1 to 3 µM, 24 h): 0.916 µM
85 to 87	COc1ccc(CCCNc2nc3ccccc3o2)cc1 [Compound 23b, N-(3-(4-Methoxyphenyl)Propyl)Benzo[d]Oxazol-2-Amine]	79	
152 to 153	c1ccc2cc(OCCNc3nc4ccccc4o3)ccc2c1 [Compound 23c, N-(2-(Naphthalen-2-yloxy)Ethyl)Benzo[d]Oxazol-2-Amine]	> 80	IC50 ([1]; 0.1 to 3 µM, 24 h): 0.894 µM
115 to 116	FC(F)(F)Oc1ccc2nc(NCCCc3cccc4ccccc34)sc2c1 [Compound 19h, N-(3-(Naphthalen-1-yl)Propyl)-6-(Trifluoromethoxy)Benzo[d]Thiazol-2-Amine]	0	
52 to 55	O=C(CCCc1ccc2ccccc2c1)Nc1nc2ccccc2o1 [Compound 5d, N-(Benzo[d]Oxazol-2-yl)-4-(Naphthalen-2-yl)Butanamide]	73	
128 to 130	c1ccc2cc(CCCNc3nc4ccccc4o3)ccc2c1 [Compound 23a, N-(3-(Naphthalen-2-yl)Propyl)Benzo[d]Oxazol-2-Amine]	> 80	IC50 ([1]; 0.1 to 3 µM, 24 h): 0.336 µM
209 to 211	O=C(Nc1nc2ccccc2s1)OCc1ccc2ccccc2c1 [Compound 16b, Naphthalen-2-ylmethyl Benzo[d]Thiazol-2-ylcarbamate]	39	
49 to 51	O=C(CCc1ccc2ccccc2c1)Nc1nc2ccccc2o1 [Compound 5c, N-(Benzo[d]Oxazol-2-yl)-3-(Naphthalen-2-yl)Propanamide]	49	
78 to 80	COC(CCc1ccc2ccccc2c1)Nc1nc2ccc(OC(F)(F)F)cc2s1 (centres unmarked) [Compound 18g, N-(1-Methoxy-3-(Naphthalen-2-yl)Propyl)-6-(Trifluoromethoxy)Benzo[d]Thiazol-2-Amine]		
48 to 50	O=C(NCCCc1ccc2ccccc2c1)c1nc2ccccc2s1 [Compound 14, N-(3-(Naphthalen-2-yl)Propyl)Benzo[d]Thiazole-2-Carboxamide]	64	
170 to 172	c1ccc2cc(OCCNc3nc4ccccc4s3)ccc2c1 [Compound 25a, N-(2-(Naphthalen-2-yloxy)Ethyl)Benzo[d]Thiazol-2-Amine]	63	
252 to 254	COc1ccc(/C=C/C(=O)Nc2nc3ccccc3s2)cc1 [Compound 9b, (E)-N-(Benzo[d]Thiazol-2-yl)-3-(4-Methoxyphenyl)Acrylamide]	25	
104 to 106	COc1ccc(CCCNc2nc3ccccc3s2)cc1 [Compound 19c, N-(3-(4-Methoxyphenyl)Propyl)Benzo[d]Thiazol-2-Amine]	62	
